Ki data for six compounds are collected here from ChEMBL document CHEMBL1141229, “On the use of nonfluorescent dye labeled ligands in FRET-based receptor binding studies” (J Med Chem, 2005).

The target of the experiment is Muscarinic acetylcholine receptor M1 (Homo sapiens, UniProt P11229). Nature of the experiment: Displacement of [3H]QNB from EGFP(delta-17)human M1 receptor expressed in HEK cells. The class given is cell-based. Particulars: hek293. Background: In a radioligand displacement assay an active substance lowers the binding of a labelled ligand.
Chain of Muscarinic acetylcholine receptor M1 (P11229 whole entry, looked up): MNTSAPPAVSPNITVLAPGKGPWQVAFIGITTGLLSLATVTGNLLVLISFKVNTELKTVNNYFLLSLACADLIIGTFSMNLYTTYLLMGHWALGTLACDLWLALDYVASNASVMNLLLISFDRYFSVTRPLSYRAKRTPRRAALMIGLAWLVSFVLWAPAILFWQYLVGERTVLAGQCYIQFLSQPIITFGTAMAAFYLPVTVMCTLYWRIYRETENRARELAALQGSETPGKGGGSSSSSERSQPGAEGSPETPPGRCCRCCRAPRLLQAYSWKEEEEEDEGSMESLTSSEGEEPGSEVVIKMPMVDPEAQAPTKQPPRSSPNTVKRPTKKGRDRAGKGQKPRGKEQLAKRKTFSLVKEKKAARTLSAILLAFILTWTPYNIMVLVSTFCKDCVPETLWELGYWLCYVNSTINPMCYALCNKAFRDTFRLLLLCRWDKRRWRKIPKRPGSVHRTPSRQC

`CCN1/C(=C/C=C/c2ccc3cc(NC(=O)CCCCC(=O)O)ccc3[n+]2CC)C=Cc2ccccc21` gave a Ki greater than 10000 nM. The compound `O=C(CCCCCNC(=O)CCc1ccc2n1[B-](F)(F)[N+]1=C(c3cccs3)C=CC1=C2)NCCCCN1CCN(CC(=O)N2c3ccccc3C(=O)Nc3cccnc32)CC1` showed a Ki of 69.7 nM. For `CCN(CC)c1ccc2c(-c3ccc(S(=O)(=O)NCCCCCC(=O)NCCOCCOCCN4CCN(CC(=O)N5c6ccccc6C(=O)Nc6cccnc65)CC4)cc3S(=O)(=O)[O-])c3ccc(=[N+](CC)CC)cc-3oc2c1` the value was 53.5 nM; for `CCN1/C(=C/C=C/c2ccc3cc(NC(=O)CCCCC(=O)NCCOCCOCCN4CCN(CC(=O)N5c6ccccc6C(=O)Nc6cccnc65)CC4)ccc3[n+]2CC)C=Cc2ccccc21`, 29.4 nM. As to `CCN(CC)c1ccc([C+](c2ccc(N(CC)CC)cc2)c2ccc(S(=O)(=O)NCCCCCC(=O)O)cc2S(=O)(=O)[O-])cc1`, the Ki was greater than 10000 nM. The figure for `CCN(CC)c1ccc([C+](c2ccc(N(CC)CC)cc2)c2ccc(S(=O)(=O)NCCCCCC(=O)NCCOCCOCCN3CCN(CC(=O)N4c5ccccc5C(=O)Nc5cccnc54)CC3)cc2S(=O)(=O)[O-])cc1` is 189 nM.

By Ki is commonly meant a measure of affinity in units of concentration, obtained from inhibition or displacement. A lower Ki goes with higher affinity.
